# In PubChem BioAssay AID2060513 (Molecular Pharmacology Branch, DTP, NCI, 2025):
# Tested on: 299254-011-R-J1-PDC complex spheroids viability
# Test: Anticancer human tumor 299254-011-R-J1-PDC patient-derived melanoma cell line growth inhibition [GQUAD]
# Settings: for IC50: curve of first compound; for viability, T/C: stronger effect = lower value
# How it was run: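 Tumor cells were grown as complex spheroids with HUVEC endothelial cells and mesenchymal stem cells as stroma. G-quadruplex stabilizers were combined with targeted agents over half-log dilutions from near the clinical Cmax, or from 10 microM.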
# [1] = second compound 0.0316 µM, first compound 0.0316 µM
# [2] = second compound 0.0316 µM, first compound 0.1 µM
# [3] = second compound 0.0316 µM, first compound 0.316 µM
# [4] = second compound 0.0316 µM, first compound 1 µM
# [5] = second compound 0.0316 µM, first compound 3.16 µM
# [6] = second compound 0.0316 µM, first compound 10 µM
# [7] = second compound 0.1 µM, first compound 0.0316 µM
# [8] = second compound 0.1 µM, first compound 0.1 µM
# [9] = second compound 0.1 µM, first compound 0.316 µM
# [10] = second compound 0.1 µM, first compound 1 µM
# [11] = second compound 0.1 µM, first compound 3.16 µM
# [12] = second compound 0.1 µM, first compound 10 µM
# [13] = second compound 0.316 µM, first compound 0.0316 µM
# [14] = second compound 0.316 µM, first compound 0.1 µM
# [15] = second compound 0.316 µM, first compound 0.316 µM
# [16] = second compound 0.316 µM, first compound 1 µM
# [17] = second compound 0.316 µM, first compound 3.16 µM
# [18] = second compound 0.316 µM, first compound 10 µM
# [19] = second compound 1 µM, first compound 0.0316 µM
# [20] = second compound 1 µM, first compound 0.1 µM
# [21] = second compound 1 µM, first compound 0.316 µM
# [22] = second compound 1 µM, first compound 1 µM
# [23] = second compound 1 µM, first compound 3.16 µM
# [24] = second compound 1 µM, first compound 10 µM
# [25] = second compound 3.16 µM, first compound 0.0316 µM
# [26] = second compound 3.16 µM, first compound 0.1 µM
# [27] = second compound 3.16 µM, first compound 0.316 µM
# [28] = second compound 3.16 µM, first compound 1 µM
# [29] = second compound 3.16 µM, first compound 3.16 µM
# [30] = second compound 3.16 µM, first compound 10 µM
# [31] = second compound 10 µM, first compound 0.0316 µM
# [32] = second compound 10 µM, first compound 0.1 µM
# [33] = second compound 10 µM, first compound 0.316 µM
# [34] = second compound 10 µM, first compound 1 µM
# [35] = second compound 10 µM, first compound 3.16 µM
# [36] = second compound 10 µM, first compound 10 µM
# 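Further: spheroids exposed to the agents for seven days before readout.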
# 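Wherever viability, T/C is given: percent viability relative to DMSO vehicle control wells = 100%.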
smiles,measurement,setting,value
CC1COCCN1c1cc(-c2ccnn2C)c2ccnc(-c3ccn[nH]3)c2n1 (stereo not drawn) + Cc1[nH]c2ccc(F)cc2c1-c1nc2c3cccnc3c3ncccc3c2[nH]1,IC50,second compound 0.0316 µM,180 nM
same,IC50,second compound 0.1 µM,177 nM
same,IC50,second compound 0.316 µM,245 nM
same,IC50,second compound 1 µM,201 nM
same,IC50,second compound 3.16 µM,187 nM
same,IC50,second compound 10 µM,88.9 nM
same,"viability, T/C",[1],111%
same,"viability, T/C",[2],65%
same,"viability, T/C",[3],36.1%
same,"viability, T/C",[4],19.6%
same,"viability, T/C",[5],21.5%
same,"viability, T/C",[6],13.1%
same,"viability, T/C",[7],80.3%
same,"viability, T/C",[8],70.3%
same,"viability, T/C",[9],29.1%
same,"viability, T/C",[10],21.6%
same,"viability, T/C",[11],17%
same,"viability, T/C",[12],12.9%
same,"viability, T/C",[13],90%
same,"viability, T/C",[14],88.4%
same,"viability, T/C",[15],38.8%
same,"viability, T/C",[16],22.4%
same,"viability, T/C",[17],14.2%
same,"viability, T/C",[18],15%
same,"viability, T/C",[19],93.1%
same,"viability, T/C",[20],70.4%
same,"viability, T/C",[21],36.5%
same,"viability, T/C",[22],21.9%
same,"viability, T/C",[23],16.4%
same,"viability, T/C",[24],17.4%
same,"viability, T/C",[25],84.5%
same,"viability, T/C",[26],71.8%
same,"viability, T/C",[27],31.8%
same,"viability, T/C",[28],14.5%
same,"viability, T/C",[29],12.2%
same,"viability, T/C",[30],15.2%
same,"viability, T/C",[31],74.1%
same,"viability, T/C",[32],47%
same,"viability, T/C",[33],26.7%
same,"viability, T/C",[34],17.4%
same,"viability, T/C",[35],12.1%
same,"viability, T/C",[36],15.4%
CC1COCCN1c1cc(-c2ccnn2C)c2ccnc(-c3ccn[nH]3)c2n1 (stereo not drawn) + Cc1cnc(CNC(=O)c2c(=O)c3ccc(N4CCCN(C)CC4)nc3n3c2sc2ccccc23)cn1,IC50,second compound 0.0316 µM,114 nM
same,IC50,second compound 0.1 µM,121 nM
same,IC50,second compound 0.316 µM,< 31.6 nM
same,IC50,second compound 1 µM,< 31.6 nM
same,IC50,second compound 3.16 µM,< 31.6 nM
same,IC50,second compound 10 µM,< 31.6 nM
same,"viability, T/C",[1],99.1%
same,"viability, T/C",[2],48.2%
same,"viability, T/C",[3],37.9%
same,"viability, T/C",[4],17.6%
same,"viability, T/C",[5],20%
same,"viability, T/C",[6],13.2%
same,"viability, T/C",[7],84.5%
same,"viability, T/C",[8],55.3%
same,"viability, T/C",[9],23.4%
same,"viability, T/C",[10],14.4%
same,"viability, T/C",[11],17.2%
same,"viability, T/C",[12],12.9%
same,"viability, T/C",[13],40.9%
same,"viability, T/C",[14],32.9%
same,"viability, T/C",[15],23.6%
same,"viability, T/C",[16],17.5%
same,"viability, T/C",[17],16.8%
same,"viability, T/C",[18],12.6%
same,"viability, T/C",[19],22%
same,"viability, T/C",[20],22.2%
same,"viability, T/C",[21],22.3%
same,"viability, T/C",[22],18.8%
same,"viability, T/C",[23],13%
same,"viability, T/C",[24],15.2%
same,"viability, T/C",[25],26.5%
same,"viability, T/C",[26],26.2%
same,"viability, T/C",[27],18%
same,"viability, T/C",[28],13.4%
same,"viability, T/C",[29],14.9%
same,"viability, T/C",[30],16.7%
same,"viability, T/C",[31],0.18%
same,"viability, T/C",[32],0.22%
same,"viability, T/C",[33],2.32%
same,"viability, T/C",[34],0.18%
same,"viability, T/C",[35],0.23%
same,"viability, T/C",[36],0.22%
COc1cccc2c1C(=O)c1c(O)c3c(c(O)c1C2=O)CC(O)(C(=O)CO)CC3OC1CC(N)C(O)C(C)O1 (stereo not drawn) + Cc1[nH]c2ccc(F)cc2c1-c1nc2c3cccnc3c3ncccc3c2[nH]1,IC50,second compound 0.0316 µM,4670 nM
same,IC50,second compound 0.1 µM,4190 nM
same,IC50,second compound 0.316 µM,5320 nM
same,IC50,second compound 1 µM,4920 nM
same,IC50,second compound 3.16 µM,2990 nM
same,IC50,second compound 10 µM,2560 nM
same,"viability, T/C",[1],100%
same,"viability, T/C",[2],91.5%
same,"viability, T/C",[3],82.2%
same,"viability, T/C",[4],90.5%
same,"viability, T/C",[5],62.4%
same,"viability, T/C",[6],25.7%
same,"viability, T/C",[7],91.4%
same,"viability, T/C",[8],91.7%
same,"viability, T/C",[9],88%
same,"viability, T/C",[10],66.4%
same,"viability, T/C",[11],64.7%
same,"viability, T/C",[12],23.8%
same,"viability, T/C",[13],94.2%
same,"viability, T/C",[14],92.1%
same,"viability, T/C",[15],93.3%
same,"viability, T/C",[16],94.7%
same,"viability, T/C",[17],74.4%
same,"viability, T/C",[18],20.4%
same,"viability, T/C",[19],88.9%
same,"viability, T/C",[20],86.9%
same,"viability, T/C",[21],94.2%
same,"viability, T/C",[22],95.3%
same,"viability, T/C",[23],69.1%
same,"viability, T/C",[24],19.3%
same,"viability, T/C",[25],89.9%
same,"viability, T/C",[26],91.7%
same,"viability, T/C",[27],90.1%
same,"viability, T/C",[28],70.3%
same,"viability, T/C",[29],50.2%
same,"viability, T/C",[30],13.4%
same,"viability, T/C",[31],90.2%
same,"viability, T/C",[32],91.3%
same,"viability, T/C",[33],82.6%
same,"viability, T/C",[34],83.3%
same,"viability, T/C",[35],42.6%
same,"viability, T/C",[36],11.9%
CC(=O)O[C@H]1C(=O)[C@@]2(C)[C@H]([C@H](OC(=O)c3ccccc3)[C@]3(O)C[C@H](OC(=O)[C@H](O)[C@@H](NC(=O)c4ccccc4)c4ccccc4)C(C)=C1C3(C)C)[C@]1(OC(C)=O)CO[C@@H]1C[C@@H]2O + Cc1cnc(CNC(=O)c2c(=O)c3ccc(N4CCCN(C)CC4)nc3n3c2sc2ccccc23)cn1,IC50,second compound 0.0316 µM,412 nM
same,IC50,second compound 0.1 µM,243 nM
same,IC50,second compound 0.316 µM,273 nM
same,IC50,second compound 1 µM,169 nM
same,IC50,second compound 3.16 µM,205 nM
same,IC50,second compound 10 µM,< 31.6 nM
same,"viability, T/C",[1],90%
same,"viability, T/C",[2],77.5%
same,"viability, T/C",[3],58.8%
same,"viability, T/C",[4],23.7%
same,"viability, T/C",[5],26.8%
same,"viability, T/C",[6],23%
same,"viability, T/C",[7],114%
same,"viability, T/C",[8],89.2%
same,"viability, T/C",[9],38.1%
same,"viability, T/C",[10],29.3%
same,"viability, T/C",[11],29.1%
same,"viability, T/C",[12],23.3%
same,"viability, T/C",[13],94.4%
same,"viability, T/C",[14],75.1%
same,"viability, T/C",[15],44.9%
same,"viability, T/C",[16],32.1%
same,"viability, T/C",[17],24.1%
same,"viability, T/C",[18],22.7%
same,"viability, T/C",[19],67.6%
same,"viability, T/C",[20],62.8%
same,"viability, T/C",[21],34.6%
same,"viability, T/C",[22],30.8%
same,"viability, T/C",[23],24.9%
same,"viability, T/C",[24],27.1%
same,"viability, T/C",[25],57.7%
same,"viability, T/C",[26],58%
same,"viability, T/C",[27],43.6%
same,"viability, T/C",[28],39.8%
same,"viability, T/C",[29],25.6%
same,"viability, T/C",[30],29.2%
same,"viability, T/C",[31],0.42%
same,"viability, T/C",[32],0.39%
same,"viability, T/C",[33],0.41%
same,"viability, T/C",[34],0.35%
same,"viability, T/C",[35],0.4%
same,"viability, T/C",[36],0.34%
